Source: patent US12673039B2, “Methods of inducing autophagy using coumarin derivatives and related compounds” (Buck Institute for Research on Aging, priority 2019, dated 2026)

Target: T1, DAF-12 (Caenorhabditis elegans, UniProt G5EFF5)
T1 construct: expressed in transfected cells; host or cells: HEK293T
T1 sequence (G5EFF5 516-753 limits assumed): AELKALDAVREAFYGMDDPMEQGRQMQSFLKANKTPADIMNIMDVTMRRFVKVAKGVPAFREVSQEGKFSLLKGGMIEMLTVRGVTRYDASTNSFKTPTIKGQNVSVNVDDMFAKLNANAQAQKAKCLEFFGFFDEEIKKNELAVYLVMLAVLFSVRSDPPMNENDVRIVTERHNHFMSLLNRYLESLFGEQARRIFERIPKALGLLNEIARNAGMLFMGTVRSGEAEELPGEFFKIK
Experiment: Mammalian one-hybrid DAF-12 activity assay (HEK293T)
Assay type: cell-based, human
Procedure: FIG. 10 illustrates that coumarin 106 (“C1”, “AIC106”) inhibits induction of the worm FXR homologue DAF-12. The ability of C1 (10 μM) to inhibit activation of the FXR worm homologue DAF-12 by its ligand dafachronic acid (Df acid); values are fold activity induction versus untreated controls; ****p<0.01 versus GW; **p<0.05 versus GW.
FIG. 22, panels A-H: AIC106-induced HLH-30 expression is mediated by the nuclear hormone receptor DAF-12. Panel A) The upstream promoter region (2 kB) of hlh-30 was analyzed by JASPAR CORE database to determine DAF-12 binding sites (1: SEQ ID NO:1, 2: 1: SEQ ID NO:2, 3: SEQ ID NO:3, 4: SEQ ID NO:4, 5: SEQ ID NO:5, 6: SEQ ID NO:6, 7: SEQ ID NO:7, 8: SEQ ID NO:8, 9: SEQ ID NO:9, 10: SEQ ID NO:10, 11: SEQ ID NO:11, 12: SEQ ID NO:12). Panel B) Relative fold change in mRNA of hlh-30 compared to DMSO-control was quantified using qRT-PCR in young adult wild-type N2 and daf-12(rh61rh411) worms post-24 hours treatment with AIC106. [N=3 independent experiments (mean±SD). **p<0.01, by one-way ANOVA with Sidak's multiple comparisons test]. Panel C) Effects of AIC106 on DAF-12 activity was determined in a mammalian one-hybrid assay by quantifying changes in the luciferase activity of DAF-12 ligand (dafachronic acid, DA) induced treatment. [N=3 independent experiments (mean±SD). *p<0.05 **p<0.01 and ***p<0.001, by one-way ANOVA with Tukey's multiple comparisons test]. Panel D) Schematic diagram showing that addition of AIC106 or inhibition of DAF-12 ligand synthesis, which leads to un-liganded DAF-12 may result in enhanced HLH-30 expression. Panel E) Dafadine-A (DFA), a specific inhibitor of key enzyme required for synthesis of DAF-12 ligand induces HLH-30 expression. Immunoblot for GFP was performed on protein lysate of HLH-30; GFP (MAH235) young adult worms treated with DFA or DMSO-control for 24 hours. Panel F) Protection against mitochondrial toxin (FCCP) was determined by quantifying survival of young adult worms treated 24 hours with DFA or DMSO-control. [N=3 independent experiments (mean±SD). **p<0.01, by two-way ANOVA with Tukey's multiple comparisons test]. Panel G) Motor function in day-7 NL5901 worms were quantified by scoring number of thrashes for an individual worm over the period of 30 seconds (dots) in DFA and DMSO-control treatment. [N=3 independent experiments (mean±SD). **p<0.01, by unpaired t-test] […] [N=3 independent experiments (mean±SD). *p<0.05, by one-way ANOVA with Tukey's multiple comparisons test].
FIG. 29, panels A-C: AIC106 modulates DAF-12 activity. […] Luciferase activity was measured to quantify DAF-12 activity. Panel C) Dose dependent increase in DAF-12 activity after treatment with known DAF-12 ligand, dafachronic acid (DA) was determined by quantifying luciferase activity. […]

With `O=c1oc2c3c4c(cc2c2c1CCC2)CCCN4CCC3` [C1, 2,3,6,7,10,11-Hexahydro-1H,5H-cyclopenta(3,4)(1)benzopyrano(6,7,8-ij)quinolizin-12(9H)-one] the “activation of DAF-12 elicited by dafachronic acid” value (C1 10 μM (FIG. 10)) was “inhibit activation of the FXR homologue DAF-12”, the “DAF-12 activity (luciferase)” value (compound alone) was “did not increase DAF-12 activity” and the “DA-induced DAF-12 activity” value (in combination with dafachronic acid) was “dose-dependent suppression of DA-induced DAF-12 activity”.
